Measured values as given in patent US11147219B2, “Methods and systems for growing plants using silicate-based substrates, cultivation of enhanced photosynthetic productivity and photosafening by utilization of exogenous glycopyranosides for endogenous glycopyranosyl-protein derivatives, and formulations, process and systems for the same” (Innovation Hammer, LLC, priority 2011, dated 2021).

Legend:
[1] = test system: corn; assay: Corn cultured in 700 μm silicate beads, root treatment; type: in vivo; settings: 1 mM IG
Experimental: Individual plants were started from seeds, bulbs, or vegetative clones, inserted into containers of pre-moistened microbeads. Seedlings included ryegrass and corn; bulbs were of Crocus and paperwhite narcissus; and vegetative cuttings were from Coleus. Seeds generally germinated and were selected according to day of emergence of first roots as control and treatment sets. Roots were treated thereafter.
(§1) Plants were cultivated under controlled environmental conditions as follow: GE Ecolux® plant and aquarium F40T12 fluorescent illumination, photosynthetically active radiation (PAR) of 100 μEin·m^−2·s^−1, diel cycle of 16:8 h light:dark, 28:26° C., 10% to 20% relative humidity. Indoxyl glycopyranoside (IG) was formulated in water and applied and controls were given equal volumes of water without IG. […] Clear plastic 500 cc containers, perforated for drainage, were filled to a depth of 10 cm with up to 900 grams of microbeads each. Initially, basal plates of bulbs were immersed 1 cm into moistened 700 μm nmd silicate beads to initiate rooting. Within a week, first roots emerged and each bulb was treated with 0.1 ml of aqueous 10 mM IG. Controls were treated with addition of 0.1 ml water to their media. After 8 h uptake of the treatments, fertigation resumed in a manner consistent with pH-control. In another case, 0.3 mM 4-amino-phenyl-α-D-mannopyranoside (APM) was dissolved in water with 3 ppm Mn as EDTA, 6 ppm Ca as EDTA. A solution of the formulation was applied to rooted Crocus. APM-treated plants were compared to plants given identical control formulation without APM. Within five hours of treatment and, through fertigation, thereafter, all container cultures were regularly given equal volumes of nutribead solution. Controls were placed side-by-side and cultivated, likewise.
For all experiments, at 7 d to 14 d after treatment, microbeads were saturated with water. Immediately, individual plants gently were pulled and lifted out of the water-saturated silicate microbeads by hand. […] For paperwhites, volumes of entire roots were measured by displacement of water in glass beakers. […]

[2] = test system: paperwhite narcissus; assay: Paperwhite narcissus bulbs cultured in 700 μm silicate beads, root treatment; type: in vivo; settings: 16 days after treatment; n=6; p=0.01; controls 30 cc
Experimental: as §1, with “Within five hours of treatment and, through fertigation, thereafter, all container cultures were regularly given equal volumes of nutribead solution. Controls were placed side-by-side and cultivated, likewise.” left out
[…] For paperwhites, volumes of entire roots were measured by displacement of water in glass beakers. […]

Indoxyl glycopyranoside [IG]
taproot total length ([1]; after a week, control 5 cm): 7 cm
dry weight of entire plant ([1]; control plant 0.2 g): 0.3 g
dry weight of separated roots ([1]; control roots 0.03 g): 0.04 g
mean root volume [2]: 37 cc per plant
